According to PMC11748363, “Antimicrobial and Antiproliferative Properties of 2‐Phenyl‐N‐(Pyridin‐2‐yl)acetamides” (Chemical Biology & Drug Design, 2025):
Values after ≈ are worked out from the molar mass of the structure shown. Like-named read-outs stand apart in the source and are kept apart here.

Key:
[1] = tested on: Mycobacterium tuberculosis H37Ra; experiment: Antimycobacterial microdilution broth MIC (resazurin), Mtb H37Ra; assay type: cell-based; details: for MIC: Mycobacterium tuberculosis, H37RA, read-out: MIC Mtb H37Ra
[2] = tested on: Mycolicibacterium smegmatis DSM 43465; experiment: Antimycobacterial microdilution broth MIC (resazurin), M. smegmatis; assay type: cell-based; details: DSM43465, read-out: MIC M. smegmatis
[3] = tested on: Mycolicibacterium aurum DSM 43999; experiment: Antimycobacterial microdilution broth MIC (resazurin), M. aurum; assay type: cell-based; details: DSM43999, read-out: MIC M. aurum
[4] = tested on: HepG2 cell line; experiment: Cytotoxicity CellTiter 96, HepG2; assay type: cell-based, human; details: Homo sapiens, HepG2, 24 h, 24 h incubation; ^c compound precipitated in the testing medium; ^d over the limit of tested concentrations
Experimental: The cytotoxicity of final compounds was determined in human hepatocellular carcinoma cell line HepG2.
Cytotoxicity determination
Human hepatocellular liver carcinoma cell line HepG2 purchased from Health Protection Agency Culture Collections (ECACC, Salisbury, UK) was cultured in MEM (Minimum Essentials Eagle Medium, Sigma–Aldrich) supplemented with 10% fetal bovine serum (PAA Laboratories, Pasching, Austria), 1% L-glutamine solution (Sigma–Aldrich) and non-essential amino acid solution (Sigma–Aldrich) in a humidified atmosphere containing 5% CO2 at 37 °C. For subculturing, the cells were harvested after trypsin/EDTA (Sigma–Aldrich) treatment at 37 °C. To evaluate cytotoxicity, the cells treated with the tested substances were used as experimental groups whereas untreated HepG2 cells served as controls. The cells were seeded in density 10,000 cells per well in a 96 well plate. The next day the cells were treated with each of the tested substances dissolved in DMSO. The tested substances were
in triplicates according to their solubility. Simultaneously, the controls representing 100% cell viability, 0% cell viability (the cells treated with 10% DMSO), no cell control and vehiculum controls were also
the reagent from the kit CellTiter 96 AQueous One Solution Cell Proliferation Assay (CellTiter 96; PROMEGA, Fitchburg, USA) was added. After 2h incubation at 37 °C, absorbance of samples was recorded at 490 nm (TECAN, Infinita M200, Austria). A standard toxicological parameter IC50 was calculated by nonlinear regression from a semilogarithmic plot of incubation concentration versus percentage of absorbance relative to untre ated controls using GraphPad Prism 8 software.

[5] = tested on: Staphylococcus aureus CCM 4223, ATCC 29213; experiment: Antibacterial microdilution broth MIC, SA; assay type: cell-based; details: Staphylococcus aureus
[6] = tested on: Staphylococcus aureus subsp. aureus CCM 4750, ATCC 43300 (MRSA); experiment: Antibacterial microdilution broth MIC, MRSA; assay type: cell-based; details: Staphylococcus aureus
[7] = tested on: Staphylococcus epidermidis CCM 4418, ATCC 12228; experiment: Antibacterial microdilution broth MIC, SE; assay type: cell-based
[8] = tested on: Enterococcus faecalis CCM 4224, ATCC 29212; experiment: Antibacterial microdilution broth MIC, EF; assay type: cell-based
[9] = tested on: Escherichia coli CCM 3954, ATCC 25922; experiment: Antibacterial microdilution broth MIC, EC; assay type: cell-based
[10] = tested on: Acinetobacter baumannii DSM 30007, ATCC 19606; experiment: Antibacterial microdilution broth MIC, ACI; assay type: cell-based
[11] = tested on: Pseudomonas aeruginosa CCM 3955, ATCC 27853; experiment: Antibacterial microdilution broth MIC, PA; assay type: cell-based
[12] = tested on: Candida albicans CCM 8320, ATCC 24433; experiment: Antifungal microdilution broth MIC, CA
[13] = tested on: Candida krusei CCM 8271, ATCC 6258; experiment: Antifungal microdilution broth MIC, CK; details: Pichia kudriavzevii
[14] = tested on: Candida parapsilosis CCM 8260, ATCC 22019; experiment: Antifungal microdilution broth MIC, CP; details: Lodderomyces parapsilosis
[15] = tested on: Candida tropicalis CCM 8264, ATCC 750; experiment: Antifungal microdilution broth MIC, CT
[16] = tested on: Aspergillus fumigatus ATCC 204305; experiment: Antifungal microdilution broth MIC, AF
[17] = tested on: Lichtheimia corymbifera CCM 8077; experiment: Antifungal microdilution broth MIC, LC
[18] = tested on: Trichophyton interdigitale CCM 8377, ATCC 9533; experiment: Antifungal microdilution broth MIC, TI; details: Trichophyton interdigitale
[19] = tested on: Aspergillus flavus CCM 8363; experiment: Antifungal microdilution broth MIC, AFla
[20] = tested on: Klebsiella pneumoniae CCM 4415, ATCC 10031; experiment: Antibacterial microdilution broth MIC, KP
[21] = ATCC204305, 24 h, read-out: MIC AF 24h
[22] = ATCC204305, 48 h, read-out: MIC AF 48h
[23] = CCM8077, 24 h, read-out: MIC LC 24h
[24] = CCM8077, 48 h, read-out: MIC LC 48h
[25] = CCM8363, 24 h, read-out: MIC AFla 24h
[26] = CCM8363, 48 h, read-out: MIC AFla 48h

Row | Compound | MIC ([1]; Calculated from MIC (μg/mL)) [µM] | MIC [1] [µg/mL] | MIC [2] [µg/mL] | MIC [3] [µg/mL] | IC50 [4] [µM] | MIC ([5]; 24 h, read-out: MIC SA 24h) [µM] | MIC ([5]; 48 h, read-out: MIC SA 48h) [µM] | MIC ([6]; 24 h, read-out: MIC MRSA 24h) [µM] | MIC ([6]; 48 h, read-out: MIC MRSA 48h) [µM] | MIC ([7]; 24 h, read-out: MIC SE 24h) [µM] | MIC ([7]; 48 h, read-out: MIC SE 48h) [µM] | MIC ([8]; 24 h, read-out: MIC EF 24h) [µM] | MIC ([8]; 48 h, read-out: MIC EF 48h) [µM] | MIC ([9]; 24 h, read-out: MIC EC 24h) [µM] | MIC ([9]; 48 h, read-out: MIC EC 48h) [µM] | MIC ([10]; 24 h, read-out: MIC ACI 24h) [µM] | MIC ([10]; 48 h, read-out: MIC ACI 48h) [µM] | MIC ([11]; 24 h, read-out: MIC PA 24h) [µM] | MIC ([11]; 48 h, read-out: MIC PA 48h) [µM] | MIC ([12]; 24 h, read-out: MIC CA 24h) [µM] | further results
1 | O=C(Cc1ccccc1Cl)Nc1ccc(Cl)cn1 [Compound 14, 2-(2-chlorophenyl)-N-(5-chloropyridin-2-yl)acetamide] | > 1780 | > 500 | > 500 | > 500 | > 50 | > 500 | > 500 | > 500 | > 500 | > 500 | > 500 | > 500 | > 500 | > 500 | > 500 | > 500 | > 500 | > 500 | > 500 | > 500 | MIC ([12]; 48 h, read-out: MIC CA 48h): > 500 µM; MIC ([13]; 24 h, read-out: MIC CK 24h): > 500 µM; MIC ([13]; 48 h, read-out: MIC CK 48h): > 500 µM; MIC ([14]; 24 h, read-out: MIC CP 24h): > 500 µM; MIC ([14]; 48 h, read-out: MIC CP 48h): > 500 µM; MIC ([15]; 24 h, read-out: MIC CT 24h): > 500 µM; MIC ([15]; 48 h, read-out: MIC CT 48h): > 500 µM; MIC [16, 21]: > 500 µM; MIC [16, 22]: > 500 µM; MIC [17, 23]: > 500 µM; MIC [17, 24]: > 500 µM; MIC ([18]; 72 h, read-out: MIC TI 72h): > 500 µM; MIC ([18]; 120 h, read-out: MIC TI 120h): > 500 µM; MIC [19, 25]: > 500 µM; MIC [19, 26]: > 500 µM; MIC KP 24h [20]: > 500 µM; MIC KP 48h [20]: > 500 µM
2 | O=C(Cc1ccc(F)cc1)Nc1cccc(Cl)n1 [Compound 33] | 59 | 15.6 | 500 (≈ 1890 µM) | 250 (≈ 945 µM) | 213 | > 500 | > 500 | > 500 | > 500 | > 500 | > 500 | > 500 | > 500 | > 500 | > 500 | > 500 | > 500 | > 500 | > 500 | > 500 | SI (selectivity index) ([1]; SI = HepG2 IC50 (μM)/MIC MtbH37Ra (μM), calculated for compounds with MIC ≤ 31.25 μg/mL): 3.6; MIC ([12]; 48 h, read-out: MIC CA 48h): > 500 µM; MIC ([13]; 24 h, read-out: MIC CK 24h): 31.2 µM (≈ 8.27 µg/mL); MIC ([13]; 48 h, read-out: MIC CK 48h): 62.5 µM (≈ 16.5 µg/mL); MIC ([14]; 24 h, read-out: MIC CP 24h): > 500 µM; MIC ([14]; 48 h, read-out: MIC CP 48h): > 500 µM; MIC ([15]; 24 h, read-out: MIC CT 24h): > 500 µM; MIC ([15]; 48 h, read-out: MIC CT 48h): > 500 µM; MIC [16, 21]: > 500 µM; MIC [16, 22]: > 500 µM; MIC [17, 23]: > 500 µM; MIC [17, 24]: > 500 µM; MIC ([18]; 72 h, read-out: MIC TI 72h): > 500 µM; MIC ([18]; 120 h, read-out: MIC TI 120h): > 500 µM; MIC [19, 25]: > 500 µM; MIC [19, 26]: > 500 µM; MIC KP 24h [20]: > 500 µM; MIC KP 48h [20]: > 500 µM
3 | O=C(Cc1ccccc1C(F)(F)F)Nc1ccccn1 [Compound 22] | 446 | 125 | 250 (≈ 892 µM) | 250 (≈ 892 µM) | 445 | > 500 | > 500 | > 500 | > 500 | > 500 | > 500 | > 500 | > 500 | > 500 | > 500 | > 500 | > 500 | > 500 | > 500 | > 500 | MIC ([12]; 48 h, read-out: MIC CA 48h): > 500 µM; MIC ([13]; 24 h, read-out: MIC CK 24h): > 500 µM; MIC ([13]; 48 h, read-out: MIC CK 48h): > 500 µM; MIC ([14]; 24 h, read-out: MIC CP 24h): > 500 µM; MIC ([14]; 48 h, read-out: MIC CP 48h): > 500 µM; MIC ([15]; 24 h, read-out: MIC CT 24h): > 500 µM; MIC ([15]; 48 h, read-out: MIC CT 48h): > 500 µM; MIC [16, 21]: 500 µM (≈ 140 µg/mL); MIC [16, 22]: > 500 µM; MIC [17, 23]: 500 µM (≈ 140 µg/mL); MIC [17, 24]: > 500 µM; MIC ([18]; 72 h, read-out: MIC TI 72h): 500 µM (≈ 140 µg/mL); MIC ([18]; 120 h, read-out: MIC TI 120h): 500 µM (≈ 140 µg/mL); MIC [19, 25]: > 500 µM; MIC [19, 26]: > 500 µM; MIC KP 24h [20]: > 500 µM; MIC KP 48h [20]: > 500 µM
4 | COc1ccccc1CC(=O)Nc1cccc(Cl)n1 [Compound 6] | > 1800 | > 500 | > 500 | > 500 | > 500 | > 500 | > 500 | > 500 | > 500 | > 500 | > 500 | > 500 | > 500 | > 500 | > 500 | > 500 | > 500 | > 500 | > 500 | > 500 | MIC ([12]; 48 h, read-out: MIC CA 48h): > 500 µM; MIC ([13]; 24 h, read-out: MIC CK 24h): > 500 µM; MIC ([13]; 48 h, read-out: MIC CK 48h): > 500 µM; MIC ([14]; 24 h, read-out: MIC CP 24h): > 500 µM; MIC ([14]; 48 h, read-out: MIC CP 48h): > 500 µM; MIC ([15]; 24 h, read-out: MIC CT 24h): > 500 µM; MIC ([15]; 48 h, read-out: MIC CT 48h): > 500 µM; MIC [16, 21]: > 500 µM; MIC [16, 22]: > 500 µM; MIC [17, 23]: > 500 µM; MIC [17, 24]: > 500 µM; MIC ([18]; 72 h, read-out: MIC TI 72h): > 500 µM; MIC ([18]; 120 h, read-out: MIC TI 120h): > 500 µM; MIC [19, 25]: > 500 µM; MIC [19, 26]: > 500 µM; MIC KP 24h [20]: > 500 µM; MIC KP 48h [20]: > 500 µM
